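Each compound was tested at five concentrations against cells in 96-well plates for 48 hours. The concentration for full growth arrest is given as TGI.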
Key:
Assay in all cases: growth of human tumour cells (NCI), 48 h
[1] = test system: SF-268 CNS
[2] = test system: NCI-H522 lung
[3] = test system: SNB-19 CNS
[4] = test system: SK-OV-3 ovarian
[5] = test system: UACC-257 melanoma
[6] = test system: NCI-H226 lung
[7] = test system: SF-295 CNS
[8] = test system: SR leukemia
[9] = test system: NCI-H460 lung
[10] = test system: LOX IMVI melanoma
[11] = test system: HT29 colon
[12] = test system: SW-620 colon
[13] = test system: UO-31 renal
[14] = test system: HS 578T breast
[15] = test system: NCI/ADR-RES ovarian
[16] = test system: MCF7 breast
[17] = test system: MDA-N

SMILES | TGI [1] | TGI [2] | TGI [3] | TGI [4] | TGI [5] | TGI [6] | TGI [7] | TGI [8] | TGI [9] | TGI [10] | TGI [11] | TGI [12] | TGI [13] | TGI [14] | TGI [15] | TGI [16] | TGI [17]
CCN(CC)C(=O)Cc1c(C(=O)N(CC)CC)c(=O)nc2sccn12 | > 100 µM | > 100 µM | > 100 µM | > 100 µM | > 100 µM | > 100 µM | > 100 µM | > 100 µM | > 100 µM | > 100 µM | > 100 µM | > 100 µM | > 100 µM |  |  |  | 
Cc1ccc(NC(Nc2ccc(C)cc2C)=C(C(Cl)=C(Cl)Cl)[N+](=O)[O-])c(C)c1 | 33.2 µM | 28 µM | 30 µM | 39.8 µM | 35.7 µM | 32.3 µM |  | 11.3 µM | 29.7 µM | 20.4 µM | 33.3 µM | 33.1 µM | 26.6 µM | > 100 µM | > 100 µM | > 100 µM | 
O=C(c1ccccc1)c1c(CC(O)c2ccccn2)n(C(=O)c2ccccc2)c2ccccc12 (centres undefined) | > 100 µM | 47.2 µM | > 100 µM |  | 43.6 µM | 54 µM | 84.8 µM | 50 µM | 57 µM |  | 30.1 µM | > 100 µM | 67.5 µM |  |  |  | 
CCN(CC)c1cccc2c1/C(=N/O)CCCC2 | > 100 µM | > 100 µM | > 100 µM | > 100 µM | > 100 µM | > 100 µM | > 100 µM | > 100 µM | > 100 µM | > 100 µM | > 100 µM | > 100 µM | > 100 µM |  |  |  | 
N#CC(C(=O)c1cccnc1Cl)c1nc2cc(C(F)(F)F)ccc2s1 (centres undefined) | > 100 µM | 61.4 µM | > 100 µM | > 100 µM | > 100 µM | > 100 µM | > 100 µM |  | > 100 µM | > 100 µM | > 100 µM | > 100 µM | > 100 µM |  | > 100 µM |  | 
CNNC1=NS(=O)(=O)c2cc(C#N)c(Cl)cc2S1 | > 10 µM | > 10 µM | > 10 µM | > 10 µM | > 10 µM | > 10 µM | > 10 µM |  | > 10 µM | > 10 µM | > 10 µM | > 10 µM | 3.38 µM | > 10 µM | > 10 µM |  | > 10 µM
C[C@@H](c1ccccc1)n1c(N)c(-c2ccccn2)c2ccc([N+](=O)[O-])cc2c1=O | > 100 µM | > 100 µM | > 100 µM |  | > 100 µM | > 100 µM |  | > 100 µM | > 100 µM | > 100 µM | > 100 µM | > 100 µM | > 100 µM | > 100 µM | > 100 µM |  | > 100 µM
Cc1cc2c(c(C=Nc3ccccc3O)c1)OC1(C=C2)Oc2ccccc2C(=O)N1C (centres undefined) | 36.3 µM |  | > 100 µM | 58.4 µM | 30.8 µM | 36.4 µM | 68.2 µM | 48 µM | 30.6 µM | 25.4 µM | 30.2 µM | 86.7 µM | 31.4 µM | 55.3 µM | 37.5 µM |  | 77.3 µM
Nc1nc2c3nc(Nc4ccccc4)sc3nc(=S)n2c2sc(Nc3ccccc3)nc12 | 56.5 µM | > 100 µM | > 100 µM | > 100 µM | > 100 µM | > 100 µM | > 100 µM | > 100 µM |  |  | > 100 µM | > 100 µM | > 100 µM |  |  |  | 
OC(c1ccc(F)cc1)C(F)(F)c1nc2ccccc2o1 (centres undefined) | > 100 µM |  | > 100 µM | > 100 µM | > 100 µM | > 100 µM | > 100 µM | > 100 µM | > 100 µM | > 100 µM | > 100 µM | > 100 µM | > 100 µM |  | > 100 µM | > 100 µM | 
COP(=O)(OC)C(=O)N1N(c2ccc([N+](=O)[O-])cc2)C(=O)C(C)NC1(NNc1ccc([N+](=O)[O-])cc1)P(=O)(OC)OC (centres undefined) | > 100 µM | > 100 µM | > 100 µM |  | > 100 µM | > 100 µM |  | > 100 µM | > 100 µM | > 100 µM |  | > 100 µM | > 100 µM |  |  |  | 
N#Cc1cccc2c1Nc1ccccc1S2 | > 100 µM | > 100 µM | > 100 µM | > 100 µM | > 100 µM | > 100 µM | > 100 µM | > 100 µM | > 100 µM | > 100 µM | > 100 µM | > 100 µM | > 100 µM |  |  |  | 
CC1(C)O[C@@H]([C@H](O)CO)[C@H](O)[C@@H](C2SCCCS2)O1 | > 100 µM |  | > 100 µM | > 100 µM | > 100 µM | > 100 µM | > 100 µM | > 100 µM | > 100 µM |  | > 100 µM | > 100 µM | > 100 µM |  | > 100 µM | > 100 µM | 
CCOC(=O)c1c(N)n(-c2ccccc2)c(=O)n(-c2ccccc2)c1=O | > 100 µM | > 100 µM | > 100 µM |  | > 100 µM | > 100 µM | > 100 µM | > 100 µM | > 100 µM | > 100 µM | > 100 µM | > 100 µM | > 100 µM | > 100 µM |  | > 100 µM | 

Reference: PubChem BioAssay (NCI)
